Results reported in patent US20160009693A1, “HERBICIDAL COMPOUNDS” (SYNGENTA LIMITED, priority 2013, published 2016).

Tests used:
Type in all cases: in vivo
Conditions in all cases: applied at 1000 g/h, evaluated after 13 days
Setaria faberi (SETFA) [1] = experiment: Herbicidal glasshouse test, post-emergence, SETFA
Summary of the method: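 Setaria faberi seeds were sown in standard soil in pots and grown for 8 days in a glasshouse at 24/16° C. day/night, 14 hours light and 65% humidity. The seedlings were then sprayed post-emergence with the active ingredient in acetone/water (50:50) containing 0.5% Tween 20. Afterwards they were kept under the same conditions, watered twice daily, and scored for percentage damage on a five point scale.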

Solanum nigrum (SOLNI) [2] = experiment: Herbicidal glasshouse test, post-emergence, SOLNI
[3] = test system: Amaranthus retoflexus (AMARE); experiment: Herbicidal glasshouse test, pre-emergence, AMARE
Summary of the method: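 Amaranthus retoflexus seeds were sown in pots of standard soil and kept one day in a glasshouse at 24/16° C. (day/night), 14 hours light and 65% humidity. They were then sprayed pre-emergence with the active ingredient in acetone/water (50:50) containing 0.5% Tween 20. Plants grew under the same conditions, watered twice daily, and percentage damage was scored after 13 days.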

[4] = test system: Ipomoea hederacea (IPOHE); experiment: Herbicidal glasshouse test, pre-emergence, IPOHE
Setaria faberi (SETFA) [5] = experiment: Herbicidal glasshouse test, pre-emergence, SETFA
[6] = test system: Alopecurus myosuroides (ALOMY); experiment: Herbicidal glasshouse test, pre-emergence, ALOMY
[7] = test system: Alopecurus myosuroides (ALOMY); experiment: Herbicidal glasshouse test, post-emergence, ALOMY
[8] = test system: Echinochloa crus-galli (ECHCG); experiment: Herbicidal glasshouse test, pre-emergence, ECHCG
Summary of the method: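 Echinochloa crus-galli seeds were sown in standard soil in pots and grown for one day in a glasshouse at 24/16° C. day/night, 14 hours light and 65% humidity. Pre-emergence spraying used an aqueous solution of the active ingredient in acetone/water (50:50) with 0.5% Tween 20. Damage was scored after 13 days on a five point scale.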

[9] = test system: Ipomoea hederacea (IPOHE); experiment: Herbicidal glasshouse test, post-emergence, IPOHE
Solanum nigrum (SOLNI) [10] = experiment: Herbicidal glasshouse test, pre-emergence, SOLNI
Summary of the method: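 Seeds of Solanum nigrum were sown in pots of standard soil and kept one day in a glasshouse at 24/16° C. day/night, 14 hours light and 65% humidity. For the pre-emergence treatment they were then sprayed with an aqueous solution of the active ingredient formulated in acetone/water (50:50) containing 0.5% Tween 20. Plant damage was rated after 13 days.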

[11] = test system: Amaranthus retoflexus (AMARE); experiment: Herbicidal glasshouse test, post-emergence, AMARE
Summary of the method: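 Amaranthus retoflexus (AMARE) seeds were sown in pots of standard soil and grown in a glasshouse at 24/16° C. day/night, 14 hours light and 65% humidity for 8 days. The plants were then sprayed post-emergence with an aqueous solution of the active ingredient in acetone/water (50:50) with 0.5% Tween 20. Damage was scored after 13 days.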

[12] = test system: Echinochloa crus-galli (ECHCG); experiment: Herbicidal glasshouse test, post-emergence, ECHCG
Summary of the method: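 Echinochloa crus-galli (ECHCG) seeds were sown in standard soil in pots and grown for 8 days in a glasshouse at 24/16° C. day/night, 14 hours light and 65% humidity. The young plants were then sprayed post-emergence with the active ingredient in acetone / water (50:50) containing 0.5% Tween 20. Damage was scored after 13 days.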

| Structure (SMILES) | POST Application SETFA, percentage damage (five point scale) (Setaria faberi (SETFA) [1]) | POST Application SOLNI, percentage damage (five point scale) (Solanum nigrum (SOLNI) [2]) | PRE Application AMARE, percentage damage (five point scale) [3] | PRE Application IPOHE, percentage damage (five point scale) [4] | PRE Application SETFA, percentage damage (five point scale) (Setaria faberi (SETFA) [5]) | PRE Application ALOMY, percentage damage (five point scale) [6] | POST Application ALOMY, percentage damage (five point scale) [7] | PRE Application ECHCG, percentage damage (five point scale) [8] | POST Application IPOHE, percentage damage (five point scale) [9] | PRE Application SOLNI, percentage damage (five point scale) (Solanum nigrum (SOLNI) [10]) | POST Application AMARE, percentage damage (five point scale) [11] | POST Application ECHCG, percentage damage (five point scale) [12] |
| --- | --- | --- | --- | --- | --- | --- | --- | --- | --- | --- | --- | --- |
| CCCn1nnnc1NC(=O)c1cn(C)c(=O)n(-c2cccc(F)c2)c1=O [Compound 4.005] | 1 (1=0-19%) | 5 (5=80-100%) | 4 (4=60-79%) | 4 (4=60-79%) | 1 (1=0-19%) | 1 (1=0-19%) | 3 (3=40-59%) | 2 (2=20-39%) | 5 (5=80-100%) | 5 (5=80-100%) | 5 (5=80-100%) | 2 (2=20-39%) |
| Cn1ncnc1NC(=O)c1nn(C)c(=O)n(-c2ccccc2)c1=O [Compound 5.001] | 5 (5=80-100%) | 5 (5=80-100%) | 5 (5=80-100%) | 4 (4=60-79%) | 1 (1=0-19%) | 1 (1=0-19%) | 5 (5=80-100%) | 1 (1=0-19%) | 5 (5=80-100%) | 5 (5=80-100%) | 5 (5=80-100%) | 5 (5=80-100%) |
| Cn1ncnc1NC(=O)c1nn(C)c(=O)n(-c2cccc(F)c2F)c1=O [Compound 5.002] | 5 (5=80-100%) | 5 (5=80-100%) | 5 (5=80-100%) | 5 (5=80-100%) | 2 (2=20-39%) | 3 (3=40-59%) | 5 (5=80-100%) | 3 (3=40-59%) | 5 (5=80-100%) | 5 (5=80-100%) | 5 (5=80-100%) | 5 (5=80-100%) |
| CCCCn1c(=O)c(C(=O)Nc2ncnn2C)nn(C)c1=O [Compound 5.003] | 4 (4=60-79%) | 5 (5=80-100%) | 5 (5=80-100%) | 4 (4=60-79%) | 4 (4=60-79%) | 1 (1=0-19%) | 3 (3=40-59%) | 1 (1=0-19%) | 4 (4=60-79%) | 5 (5=80-100%) | 5 (5=80-100%) | 4 (4=60-79%) |
| Cn1cnnc1NC(=O)c1nn(C)c(=O)n(-c2ccccc2)c1=O [Compound 6.001] | 3 (3=40-59%) | 5 (5=80-100%) | 5 (5=80-100%) | 1 (1=0-19%) | 5 (5=80-100%) | 1 (1=0-19%) | 3 (3=40-59%) | 1 (1=0-19%) | 5 (5=80-100%) | 5 (5=80-100%) | 5 (5=80-100%) | 5 (5=80-100%) |
| Cn1cnnc1NC(=O)c1nn(C)c(=O)n(-c2cccc(F)c2F)c1=O [Compound 6.002] | 4 (4=60-79%) | 5 (5=80-100%) | 5 (5=80-100%) | 5 (5=80-100%) | 2 (2=20-39%) | 2 (2=20-39%) | 4 (4=60-79%) | 2 (2=20-39%) | 5 (5=80-100%) | 5 (5=80-100%) | 5 (5=80-100%) | 4 (4=60-79%) |
| CCCCn1c(=O)c(C(=O)Nc2nncn2C)nn(C)c1=O [Compound 6.003] | 2 (2=20-39%) | 4 (4=60-79%) | 5 (5=80-100%) | 5 (5=80-100%) | 5 (5=80-100%) | 1 (1=0-19%) | 3 (3=40-59%) | 4 (4=60-79%) | 5 (5=80-100%) | 5 (5=80-100%) | 5 (5=80-100%) | 1 (1=0-19%) |
